Laboratory results taken from ChEMBL document CHEMBL3817797, “Crystal Structure of Human E-Cadherin-EC1EC2 in Complex with a Peptidomimetic Competitive Inhibitor of Cadherin Homophilic Interaction” (J Med Chem, 2016).
The source made the active and inactive calls. The rule behind the calls is not given here.

What was measured:
[1] = target: T1, Cadherin-1 (Homo sapiens) (UniProt P12830); assay: Inhibition of E-cadherin-Fc chimeric protein binding to E-cadherin in human OAW42 cells at 2 mM preincubated for 1 hr followed by E-cadherin-Fc addition measured after 2 hrs by ELISA relative to control; type: cell-based; settings: OAW-42
T1 sequence (whole entry): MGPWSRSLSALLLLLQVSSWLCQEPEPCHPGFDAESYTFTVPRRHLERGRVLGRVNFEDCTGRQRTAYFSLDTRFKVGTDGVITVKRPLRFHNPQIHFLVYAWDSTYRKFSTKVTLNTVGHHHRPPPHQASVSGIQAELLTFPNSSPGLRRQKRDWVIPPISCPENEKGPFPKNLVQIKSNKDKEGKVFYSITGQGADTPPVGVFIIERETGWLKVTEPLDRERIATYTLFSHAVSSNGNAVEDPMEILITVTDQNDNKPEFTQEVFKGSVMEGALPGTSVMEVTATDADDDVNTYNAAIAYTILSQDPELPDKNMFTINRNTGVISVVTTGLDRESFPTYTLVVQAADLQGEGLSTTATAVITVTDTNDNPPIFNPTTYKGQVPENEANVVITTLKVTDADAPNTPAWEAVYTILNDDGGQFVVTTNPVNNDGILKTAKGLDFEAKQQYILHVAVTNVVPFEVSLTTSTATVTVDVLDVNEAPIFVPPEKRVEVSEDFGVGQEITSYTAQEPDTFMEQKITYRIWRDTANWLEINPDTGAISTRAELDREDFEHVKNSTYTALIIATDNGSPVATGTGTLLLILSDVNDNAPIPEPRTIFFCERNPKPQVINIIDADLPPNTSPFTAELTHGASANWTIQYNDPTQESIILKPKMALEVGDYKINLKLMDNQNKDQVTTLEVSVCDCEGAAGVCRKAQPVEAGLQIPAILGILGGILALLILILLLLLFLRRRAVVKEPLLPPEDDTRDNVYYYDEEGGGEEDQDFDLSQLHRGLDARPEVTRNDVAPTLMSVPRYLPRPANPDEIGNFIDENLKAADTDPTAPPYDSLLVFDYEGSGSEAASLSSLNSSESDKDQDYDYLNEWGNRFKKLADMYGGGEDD

[2] = target: T2, Cadherin-2 (Homo sapiens) (UniProt P19022); assay: Inhibition of recombinant N-cadherin-Fc chimeric protein (unknown origin) homodimerization at 10 uM preincubated for 30 mins followed by N-cadherin-Fc addition by surface plasmon resonance analysis relative to control
T2 sequence (whole entry): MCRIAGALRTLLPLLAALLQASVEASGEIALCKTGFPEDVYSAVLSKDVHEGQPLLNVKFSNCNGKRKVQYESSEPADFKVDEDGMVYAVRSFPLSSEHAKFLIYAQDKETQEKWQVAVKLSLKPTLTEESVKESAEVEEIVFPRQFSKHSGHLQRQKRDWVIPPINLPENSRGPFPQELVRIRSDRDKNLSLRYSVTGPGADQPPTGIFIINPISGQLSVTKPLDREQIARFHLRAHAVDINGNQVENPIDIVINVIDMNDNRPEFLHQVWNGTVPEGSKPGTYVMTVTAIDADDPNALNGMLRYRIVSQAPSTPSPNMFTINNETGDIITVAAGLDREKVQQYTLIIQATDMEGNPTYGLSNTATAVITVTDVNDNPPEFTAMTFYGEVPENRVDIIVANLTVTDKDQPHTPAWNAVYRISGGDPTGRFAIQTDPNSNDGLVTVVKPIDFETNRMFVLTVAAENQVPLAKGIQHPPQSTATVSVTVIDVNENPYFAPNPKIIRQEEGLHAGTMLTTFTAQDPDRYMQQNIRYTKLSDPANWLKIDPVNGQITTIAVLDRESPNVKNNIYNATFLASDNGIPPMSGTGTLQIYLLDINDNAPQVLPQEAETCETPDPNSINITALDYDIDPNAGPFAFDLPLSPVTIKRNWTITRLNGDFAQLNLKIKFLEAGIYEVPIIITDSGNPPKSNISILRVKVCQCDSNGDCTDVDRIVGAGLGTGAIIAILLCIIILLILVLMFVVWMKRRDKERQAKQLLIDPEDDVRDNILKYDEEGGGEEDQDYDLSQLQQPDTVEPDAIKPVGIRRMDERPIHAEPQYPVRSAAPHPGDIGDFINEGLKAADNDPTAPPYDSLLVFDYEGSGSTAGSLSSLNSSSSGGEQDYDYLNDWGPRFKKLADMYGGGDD

[3] = target: T2, Cadherin-2 (Homo sapiens); assay: Inhibition of N-cadherin-Fc chimeric protein binding to N-cadherin in human SKOV3 cells at 2 mM preincubated for 1 hr followed by N-cadherin-Fc addition measured after 2 hrs by ELISA relative to control; type: cell-based; settings: SK-OV-3
[4] = target: T2, Cadherin-2 (Homo sapiens); assay: Inhibition of N-cadherin-Fc chimeric protein binding to N-cadherin in human SKOV3 cells at 1 mM preincubated for 1 hr followed by N-cadherin-Fc addition measured after 2 hrs by ELISA relative to control; type: cell-based; settings: SK-OV-3
[5] = target: T1, Cadherin-1 (Homo sapiens); assay: Binding affinity to E-cadherin in human OAW42 cells assessed as effect on PI3K/Akt signalling activation by measuring phosphorylation of Akt at Ser-473 residue at 1 to 2 mM by immunoblot analysis; type: cell-based; settings: OAW-42

| SMILES | inhibition [1] [%] | inhibition [2] [%] | inhibition [3] [%] | inhibition [4] | Activity [5] |
| --- | --- | --- | --- | --- | --- |
| CC(=O)N[C@H]1CSSC[C@@H](C(N)=O)NC(=O)[C@H](C(C)C)NC(=O)[C@H](C)NC(=O)[C@H](Cc2c[nH]cn2)NC1=O | 30 | 28 | 50 | inactive | – |
| CC[C@H](C)[C@H](NC(=O)C[C@@H]1NC(=O)[C@H](CNC(=O)[C@@H](N)CC(=O)O)N(Cc2ccccc2)C1=O)C(=O)NC(C)(C)C | 50 | 55 | 84 | 65% | Active |
